Results on one compound are retold here after patent US20250108051A1, “THERAPEUTIC AGENT FOR CANCER” (TOHOKU UNIVERSITY, priority 2022, published 2025).

For test [1], the system named is WiDR (BRAF V600E-mutated colorectal cancer cell line). Nature of the test: MTT assay, encorafenib + binimetinib with retinoid. Particulars: ATRA 0, 1.0 or 10 μM; encorafenib and binimetinib 0 to 10 μM. It is filed as cell-based. How it is done:
RKO cells were seeded on a 96-well plate with the number of cells of 1.5×10^3 cells/well, CO115 cells were seeded on a 96-well plate with the number of cells of 2.5×10^3 cells/well, and HT29 cells and WiDR cells were respectively seeded on 96-well plates with the number of cells of 6×10^3 cells/well. After incubation for about 24 hours until the cell density reached 40% to 60%, the drug was administered. After incubation at 37° C. for 72 hours, the MTT assay was performed using Cell Counting Kit-8 (Dojindo Laboratories, Kumamoto, Japan). To each well was added 10 μl of Cell Counting Kit-8 solution, the plates were placed in a culture vessel at 5% CO2 and 37° C. for 120 minutes to perform a color reaction, and then the absorbance at 450 nm was measured and evaluated with a microplate reader SpectraMax M2e (Molecular Devices, Sunnyvale, CA, USA). Cells administered with 0.1% DMSO were used as a control. The above was performed three or more times as independent experiments.
In various kinds of colorectal cancer cell lines, the inhibition effect of a BRAF inhibitor (encorafenib) and an MEK inhibitor (binimetinib) for the viability of cells and the enhancement by ATRA were examined. […] The horizontal axis indicates component concentrations of encorafenib and binimetinib in a range of 0 μM to 10 μM, and the vertical axis indicates the cell viability when 0 μM, 1.0 μM, or 10 μM (each bar graph) of ATRA was administered. As shown in the drawing, encorafenib and binimetinib were used in an equal molar concentration.
As the compounds for acting on a retinoid receptor, retinol, tamibarotene, and bexarotene among the retinoids were used. As the cell lines, the colorectal cancer cell lines including RKO, HT29, CO115, WiDR, COLO205, and LIM2405 described above were used. As the BRAF inhibitor and the MEK inhibitor to be used in combination, a component (EB) obtained by mixing encorafenib and binimetinib in equal amounts was used as in Test Example 2.
For orientation: Tetrazolium dyes change colour on reduction, which living cells bring about.

Test [2] concerns cleaved PARP in RKO cell line. The test is described as follows: Western blot of cleaved PARP under RARα or RXRα knockdown. It is filed as cell-based. How it is done:
To the collected cells were added Radioimmunoprecipitation assay buffer (composition: 50 mM Tris-HCL, pH 8.0, 150 mM Sodium Chloride, 0.5 w/v % Sodium Deoxycholate, 0.1 w/v % Sodium Dodecyl Sulfate, 1.0 w/v % NP-40 substitute) supplemented with Halt Protease Inhibitor Cocktail (Thermo Fisher Scientific Inc.), followed by dissolving the cells, and a protein was extracted. The extracted protein was quantified by a bicinchoninic acid method. A protein sample in an amount of 5 μg was separated by polyacrylamide electrophoresis, and the separated protein sample was transferred to Polyvinylidene difluoride membrane (PVDF membrane, Merck Millipore Ltd.), followed by blocking with Odyssey Blocking Buffer (Licor Inc.) for 1 hour at room temperature. Thereafter, the PVDF membrane after transfer was immersed in a primary antibody solution, followed by culturing at room temperature for 2 hours or at 4° C. overnight. After the primary antibody reaction, the PVDF membrane was washed with Tris Buffered Saline with Tween 20 (TBS-T) for 5 minutes at room temperature for three times and immersed in a secondary antibody, followed by incubating at room temperature for 1 hour. As the secondary antibody, Goat anti-Rabbit IgG (H+L) Highly Cross-Adsorbed Secondary Antibody Alexa Fluor680 (Thermo Fisher Scientific Inc.) and Goat anti-Mouse IgG (H+L) Highly Cross-Adsorbed Secondary Antibody Alexa Fluor680 (Thermo Fisher Scientific Inc.) were used at a dilution ratio of 1:1000. Thereafter, washing with TBS-T for 5 minutes was performed three times, and a measurement of signals was performed using an Odyssey Infrared Imaging System (Licor Inc.). […] The above was performed three or more times as independent experiments. Student's test was used for a significant difference test.
Background: A western blot detects proteins with antibodies after separation by electrophoresis.

Turning to `CC1=C(/C=C/C(C)=C/C=C/C(C)=C/C(=O)O)C(C)(C)CCC1` [ATRA, all-trans retinoic acid], the “cell viability with encorafenib and binimetinib as a function of ATRA concentration” value in test [1] is reported as “the higher the concentration of ATRA is, the lower the cell viability is”. The “enhancement by TRE of expression level of cleaved PARP caused by ENC+BIN” value is listed as “about 8 times” in test [2] (RARα inhibited), “about 1.5 times” in test [2] (RXRα inhibited) and “about 13 times” in test [2] (si-NC). Also, the “enhancement by TRE of expression level of cleaved PARP caused by ENC+BIN+CET” value was “about 3 times” in test [2] (RARα inhibited), “about 2 times” in test [2] (RXRα inhibited) and “about 11 times” in test [2] (si-NC).
